# Measured values: patent US8034799B2, “Preventing and/or treating cardiovascular disease and/or associated heart failure” (Philera New Zealand Limited, priority 2002, dated 2011)
# Where two headings read alike, the source gives them in different places.
# Assays:
# diabetic rats = settings: treatment of diabetic rats; cited from earlier work
# [1] = system: diabetic (STZ) and nondiabetic male Wistar rats
# Text: (§1) Nondiabetic animals received an equivalent volume of saline.
# (§2) All animals were fasted overnight prior to surgery but continued to have ad libitum access to deionized water. […] The femoral artery and vein were cannulated with a solid-state blood pressure transducer (Mikrotip™ 1.4F, Millar Instruments, Texas, USA) and a saline filled PE 50 catheter respectively. The ureters were exposed via a midline abdominal incision, cannulated using polyethylene catheters (external diameter 0.9 mm, internal diameter 0.5 mm) and the wound sutured closed. The trachea was cannulated and the animal ventilated at 70-80 breaths·min^−1 with air supplemented with O2 (Pressure Controlled Ventilator, Kent Scientific, Connecticut, USA). The respiratory rate and end-tidal pressure (10-15 cm H2O) were adjusted to maintain end-tidal CO2 at 35-40 mm Hg (SC-300 CO2 Monitor, Pryon Corporation, Wisconsin, USA). Body temperature was maintained at 37° C. throughout surgery and the experiment by a heating pad. Estimated fluid loss was replaced with intravenous administration of 154 mmol·l^−1 NaCl solution at a rate of 5 ml·kg^−1·h^−1.
# (§3) Following surgery and a 20 min stabilization period, the experimental protocol was started. Trientine was administered intravenously over 60 s in hourly doses of increasing concentration (0.1, 1.0, 10 and 100 mg·kg^−1 in 75 μl saline followed by 125 μl saline flush). Control animals received an equivalent volume of saline. Urine was collected in 15 min aliquots throughout the experiment in pre-weighed polyethylene epindorph tubes. At the end of the experiment a terminal blood sample was taken by cardiac puncture and the separated serum stored at −80° C. until future analysis. Hearts were removed through a rapid mid-sternal thoracotomy and processed as described below.
# Mean arterial pressure (MAP), heart rate (HR, derived from the MAP waveform) oxygen saturation (Nonin 8600V Pulse Oximeter, Nonin Medical Inc., Minnesota, USA) and core body temperature, were all continuously monitored throughout the experiment using a PowerLab/16s data acquisition module (AD Instruments, Australia).
# [2] = system: diabetic (STZ) and nondiabetic male Wistar rats; remark: listed apart in the source
# Text: as §1, §2, §3
# Instrumentation: A Perkin Elmer (PE) Model 3100 Atomic Absorption Spectrophotometer equipped with a PE HGA-600 Graphite Furnace and PE AS-60 Furnace Autosampler was used for Cu and Fe determinations in urine. Deuterium background correction was employed. A Cu or Fe hollow-cathode lamp (Perkin Elmer Corporation) was used and operated at either 10 W (Cu) or 15 W (Fe). The 324.8 nm atomic line was used for Cu and the 248.3 nm atomic line for Fe. The slit width for both Cu and Fe was 0.7 nm. Pyrolytically coated graphite tubes were used for all analyses. The injection volume was 20 μL. A typical graphite furnace temperature program is shown below.
# Urine: Urine was collected in pre-weighed 1.5 ml micro test tubes (eppendorf). After reweighing, the urine specimens were centrifuged and the supernatant diluted 25:1 with 0.02 M 69% Aristar grade HNO3. The sample was stored at 4° C. prior to GF-AAS analysis. If it was necessary to store a sample for a period in excess of 2 weeks, it was frozen and kept at −20° C.
# Statistical analyses were as follows: All values are expressed as mean±SEM and P values <0.05 were considered statistically significant. Student's unpaired t-test was initially used to test for weight and glucose differences between the diabetic and control groups.
# [3] = system: diabetic (STZ) and nondiabetic male Wistar rats; settings: for Renal clearance Cu / Renal clearance Fe / Serum Cu / Serum Fe: trientine; for Renal clearance Cu / Renal clearance Fe: final hour of experiment; for Serum Cu / Serum Fe: terminal blood sample
# Method: as §3
# Serum: Terminal blood samples were centrifuged and serum treated and stored as per urine until analysis. From the trace metal content of serum from the terminal blood sample and urine collected over the final hour of the experiment, renal clearance was calculated using the following equation: renal clearance of trace metal=(a) the concentration of metal in urine (μg·μl^−1) times (b) the rate of urine flow (μl·min^−1), divided by (c) the concentration of metal in serum (μg·μl^−1)
# [4] = system: diabetic (STZ) and nondiabetic male Wistar rats; settings: for Cu content of heart tissue / Fe content of heart tissue: trientine treated
# Method: as §3
# Cu, Fe and Zn in tissue digests were also determined at Hill Laboratories (Hamilton, New Zealand) using either a PE Sciex Elan-6000 or PE Sciex Elan-6100 DRC ICP-MS.
# Heart: Following removal from the animal, the heart was cleaned of excess tissue, rinsed in buffer to remove excess blood, blotted dry and a wet ventricular weight recorded. Using titanium instruments a segment of left ventricular muscle was dissected and placed in a pre-weighed 5.0 ml polystyrene tube. The sample was freeze-dried overnight to constant weight before 0.45 ml of 69% Aristar grade HNO3 was added. The sample tube was heated in a water bath at 65° C. for 60 minutes. The sample was brought to 4.5 ml with Milli-Q H2O. The resulting solution was diluted 2:1 in order to reduce the HNO3 concentration below the maximum permitted for ICP-MS analysis.
# [5] = system: STZ diabetic and normal Wistar rats
# Method: On the last day of the experiment, animals were anesthetized (5% halothane and 2 L·min^−1 O2), and heparin (500 IU·kg^−1) (Weddel Pharmaceutical Ltd., London) administered intravenously via tail vein. […] Hearts were then placed in the isolated perfused working heart apparatus.
# The aortic root of the heart was immediately ligated to the aortic cannula of the perfusion apparatus. Retrograde (Langendorff) perfusion at a hydrostatic pressure of 100 cm H2O and at 37° C. was established and continued for 5 min while cannulation of the left atrium via the pulmonary vein was completed. The non-working (Langendorff) preparation was then converted to the working heart model by switching the supply of perfusate buffer from the aorta to the left atrium at a filling pressure of 10 cm H2O. […] The perfusion solution was Krebs-Henseleit bicarbonate buffer (mM: KCl 4.7, CaCl2 2.3, KH2PO4 1.2, MgSO4 1.2, NaCl 118, and NaHCO3 25), pH 7.4 containing 11 mM glucose and it was continuously gassed with 95% O2:5% CO2. The buffer was also continuously filtered in-line (initial 8 μm, following 0.4 μm cellulose acetate filters; Sartorius, Germany). The temperature of the entire perfusion apparatus was maintained by water jackets and buffer temperature was continuously monitored and adjusted to maintain hearts at 37° C. throughout perfusion.
# A modified 24 g plastic intravenous cannula (Becton Dickson, Utah, USA) was inserted into the left ventricle via the apex of the heart using the normal introducer-needle. This cannula was subsequently attached to a SP844 piezo-electric pressure transducer (AD Instruments) to continuously monitor left ventricular pressure. Aortic pressure was continuously monitored through a side arm of the aortic cannula with a pressure transducer (Statham Model P23XL, Gould Inc., CA, USA). The heart was paced (Digitimer Ltd, Heredfordshire, England) at a rate of 300 bpm by means of electrodes attached to the aortic and pulmonary vein cannulae using supra-threshold voltages with pulses of 5-ms duration from the square wave generator.
# [6] = system: STZ diabetic and normal Wistar rats; settings: for Heart weight / Heart weight (g)/BW (g) / Left Ventricular wall thickness / Left Ventricular wall thickness per BW: mean ± SD
# diabetic Wistar rats = settings: six months of treatment
# [7] = diabetic and nondiabetic animals
# [8] = STZ/D7 (diabetic, trientine weeks 7-13)
# [9] = Sham/D7 (non-diabetic, trientine weeks 7-13)
structure (smiles),measurement,setting,value
N=C(N)NN [aminoguanidine],aortic impedance,diabetic rats,decreases
same,carotid artery compliance,diabetic rats,increased
same,myocardial compliance,diabetic rats,prevented the decreased myocardial compliance
"NCCNCCNCCN [trientine, N,N′-Bis(2-aminoethyl)-1,2-ethanedi-amine]",adverse cardiovascular effects,"[1]; after acute administration, 0.1-100 mg·kg^−1 i.v.",no adverse cardiovascular effects
same,body temperature and oxygen saturation,[1]; all animals throughout the experiment,remained stable
same,time for MAP to return to pre-dose levels,[1]; highest dose (100 mg·kg^−1 i.v.),≤ 10 min
same,maximum decrease in MAP,"[1]; highest dose (100 mg·kg^−1 i.v.), for the 2 min following administration",19±4 mm Hg
same,MAP and HR during infusion,"[1]; i.v. hourly increasing doses, all doses except the highest, diabetic and nondiabetic rats",no effect
same,"copper excretion versus saline, mixed linear model",[2]; all dose levels,significantly higher excretion of copper
same,greater iron excretion per gram of body weight in diabetic than nondiabetic animals,[2]; animals receiving trientine,not evident
same,total iron excretion versus saline,[2]; both diabetic and nondiabetic animals,not different
same,total copper excreted over the entire duration of the experiment versus saline controls,[2]; both nondiabetic and diabetic animals,significantly increased
same,increase of urine excretion versus equivalent volume of saline,"[2]; diabetic animals, 100 mg·kg^−1 i.v.",not seen
same,"iron excretion (μg), saline versus drug","[2]; diabetic animals, at most doses",greater in animals administered saline than in those administered drug
same,"diabetes x drug interaction effect on copper excretion, mixed linear model",[2]; dose levels of 1.0 mg·kg^−1 and above,significant
same,"total copper per gram of body weight, diabetic versus nondiabetic animals receiving drug",[2]; entire experiment,excreted more total copper per gram of body weight
same,"copper excretion per gram of body weight, diabetic versus nondiabetic animals",[2]; in response to each dose of drug,significantly greater copper excretion per gram of body weight
same,greater total iron excretion per gram of body weight in diabetic than nondiabetic animals,[2]; in response to trientine,not seen
same,urine excretion versus equivalent volume of saline,"[2]; nondiabetic animals, 100 mg·kg^−1 i.v.",increased urine excretion
same,"serum content or renal clearance of iron, effect of drug",[3]; [7],no effect
same,"serum copper content, drug versus saline",[3]; [7],no significant difference
same,"renal clearance of copper, drug versus saline",[3]; diabetic animals,significant increase
same,Renal clearance Cu,"[3]; diabetic, n = 6",*28.5 ± 4.8 μl · min^−1
same,Renal clearance Fe,"[3]; diabetic, n = 6",0.25 ± 0.07 µL/min
same,Serum Cu,"[3]; diabetic, n = 6",7.56 ± 0.06 μg · μl^−1 × 10^−4
same,Serum Fe,"[3]; diabetic, n = 6",35.7 ± 7.98 μg · μl^−1 × 10^−4
same,"increase in renal clearance of copper, drug versus saline",[3]; nondiabetic animals (P=0.056),not statistically significant
same,Renal clearance Cu,"[3]; nondiabetic, n = 4",19.9 ± 6.4 µL/min
same,Renal clearance Fe,"[3]; nondiabetic, n = 4",0.46 ± 0.22 µL/min
same,Serum Cu,"[3]; nondiabetic, n = 4",7.11 ± 0.41 μg · μl^−1 × 10^−4
same,Serum Fe,"[3]; nondiabetic, n = 4",33.6 ± 1.62 μg · μl^−1 × 10^−4
same,effect of drug on cardiac content of iron and copper,[4]; acute i.v. administration,nor any effect of drug
same,"content of copper in cardiac tissue, diabetic versus nondiabetic animals",[4]; animals receiving saline or trientine,no significant difference
same,Cu content of heart tissue,[4]; diabetic,24.7 ± 1.5 μg · g^−1 dry tissue
same,Fe content of heart tissue,[4]; diabetic,186 ± 46 μg · g^−1 dry tissue
same,Cu content of heart tissue,[4]; nondiabetic,27.1 ± 1.0 μg · g^−1 dry tissue
same,Fe content of heart tissue,[4]; nondiabetic,235 ± 39 μg · g^−1 dry tissue
same,Percentage functioning at each afterload,"[5]; STZ/D7 (diabetic, trientine weeks 7-13), afterload 55.9 mmHg",100%
same,Number surviving (aortic flow >0 mls/min),"[5]; STZ/D7 (diabetic, trientine weeks 7-13, N 8), afterload 55.9 mmHg",8
same,Number surviving (aortic flow >0 mls/min),"[5]; STZ/D7, afterload 61.8 mmHg",8
same,Percentage functioning at each afterload,"[5]; STZ/D7, afterload 61.8 mmHg",100%
same,Number surviving (aortic flow >0 mls/min),"[5]; STZ/D7, afterload 67.7 mmHg",8
same,Percentage functioning at each afterload,"[5]; STZ/D7, afterload 67.7 mmHg",100%
same,Number surviving (aortic flow >0 mls/min),"[5]; STZ/D7, afterload 71.4 mmHg",8
same,Percentage functioning at each afterload,"[5]; STZ/D7, afterload 71.4 mmHg",100%
same,Number surviving (aortic flow >0 mls/min),"[5]; STZ/D7, afterload 77.2 mmHg",8
same,Percentage functioning at each afterload,"[5]; STZ/D7, afterload 77.2 mmHg",100%
same,Number surviving (aortic flow >0 mls/min),"[5]; STZ/D7, afterload 83.1 mmHg",8
same,Percentage functioning at each afterload,"[5]; STZ/D7, afterload 83.1 mmHg",100%
same,Number surviving (aortic flow >0 mls/min),"[5]; STZ/D7, afterload 88.3 mmHg",7
same,Percentage functioning at each afterload,"[5]; STZ/D7, afterload 88.3 mmHg",88%
same,Number surviving (aortic flow >0 mls/min),"[5]; STZ/D7, afterload 94.9 mmHg",6
same,Percentage functioning at each afterload,"[5]; STZ/D7, afterload 94.9 mmHg",75%
same,Number surviving (aortic flow >0 mls/min),"[5]; STZ/D7, afterload 100.8 mmHg",5
same,Percentage functioning at each afterload,"[5]; STZ/D7, afterload 100.8 mmHg",63%
same,Number surviving (aortic flow >0 mls/min),"[5]; STZ/D7, afterload 106.7 mmHg",1
same,Percentage functioning at each afterload,"[5]; STZ/D7, afterload 106.7 mmHg",13%
same,Percentage functioning at each afterload,"[5]; Sham/D7 (non-diabetic, trientine weeks 7-13), afterload 55.9 mmHg",100%
same,Number surviving (aortic flow >0 mls/min),"[5]; Sham/D7 (non-diabetic, trientine weeks 7-13, N 11), afterload 55.9 mmHg",11
same,Number surviving (aortic flow >0 mls/min),"[5]; Sham/D7, afterload 61.8 mmHg",11
same,Percentage functioning at each afterload,"[5]; Sham/D7, afterload 61.8 mmHg",100%
same,Number surviving (aortic flow >0 mls/min),"[5]; Sham/D7, afterload 67.7 mmHg",11
same,Percentage functioning at each afterload,"[5]; Sham/D7, afterload 67.7 mmHg",100%
same,Number surviving (aortic flow >0 mls/min),"[5]; Sham/D7, afterload 71.4 mmHg",11
same,Percentage functioning at each afterload,"[5]; Sham/D7, afterload 71.4 mmHg",100%
same,Number surviving (aortic flow >0 mls/min),"[5]; Sham/D7, afterload 77.2 mmHg",11
same,Percentage functioning at each afterload,"[5]; Sham/D7, afterload 77.2 mmHg",100%
same,Number surviving (aortic flow >0 mls/min),"[5]; Sham/D7, afterload 83.1 mmHg",11
same,Percentage functioning at each afterload,"[5]; Sham/D7, afterload 83.1 mmHg",100%
same,Number surviving (aortic flow >0 mls/min),"[5]; Sham/D7, afterload 88.3 mmHg",11
same,Percentage functioning at each afterload,"[5]; Sham/D7, afterload 88.3 mmHg",100%
same,Number surviving (aortic flow >0 mls/min),"[5]; Sham/D7, afterload 94.9 mmHg",11
same,Percentage functioning at each afterload,"[5]; Sham/D7, afterload 94.9 mmHg",100%
same,Number surviving (aortic flow >0 mls/min),"[5]; Sham/D7, afterload 100.8 mmHg",11
same,Percentage functioning at each afterload,"[5]; Sham/D7, afterload 100.8 mmHg",100%
same,Number surviving (aortic flow >0 mls/min),"[5]; Sham/D7, afterload 106.7 mmHg",9
same,Percentage functioning at each afterload,"[5]; Sham/D7, afterload 106.7 mmHg",82%
same,cardiac output,"[5]; drug treated diabetic group, pre-load increased (5-20 cm H2O), after-load constant",restored to Sham values
same,aortic and absolute coronary flows,"[5]; drug treated diabetic group, pre-load increased, after-load constant",improved
same,"indicators for ventricular contraction and relaxation (+dP/dt, −dP/dt)",[5]; drug treated versus untreated diabetic group,significantly improved
same,heart's ability to function at higher after-loads,"[5]; drug treated versus untreated diabetic group, constant pre-load",greatly improved
same,adverse effects on cardiac performance,[5]; drug treatment of normal animals (Sham/D7),no adverse effects
same,cardiac function overall,"[5]; oral trientine for 7 weeks, Wistar rats with established diabetes of 6 weeks duration",global improvement in cardiac function
same,trientine treated diabetic hearts still functioning,[5]; when 50% of the untreated diabetic hearts had failed,about 90%
same,Heart weight,[6]; [8],1.18 ± 0.24 g
same,Heart weight (g)/BW (g),[6]; [8],0.0041 ± 0.0005^
same,Left Ventricular wall thickness,[6]; [8],3.79 ± 0.52 mm
same,Left Ventricular wall thickness per BW,[6]; [8],0.0127 ± 0.0027^ (mm)/(g)
same,Heart weight,[6]; [9],1.58 ± 0.05 g
same,Heart weight (g)/BW (g),[6]; [9],0.0028 ± 0.0001
same,Left Ventricular wall thickness,[6]; [9],4.03 ± 0.1 mm
same,Left Ventricular wall thickness per BW,[6]; [9],0.0072 ± 0.0003 (mm)/(g)
same,"heart:body weight ratio, treated versus untreated diabetic animals","[6]; diabetic animals, trientine weeks 7-13",small but significant improvement
same,"ventricular wall thickness:bodyweight ratio, treated versus non-treated diabetics",[6]; did not reach significance,trend toward improved
same,"blood glucose profile, treated versus untreated comparison group","[6]; either treated group (STZ/D7, Sham/D7), p=ns",no difference
same,protection of hearts from development of diabetic damage (cardiomyopathy) as judged by histology,diabetic Wistar rats,appears to protect
